Assay results reported in the supplement of paper PMC10883282.

Tests used:
Assay in all cases: standardised AUC of viability dose-response curve (72 h) (fraction (0-1)); higher = less growth inhibition (more resistant)
G401 = test system: G401
Summary of the method: (§1)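 Sarcoma cell lines in 384-well plates were treated in triplicate for 72 h with 2.5 µl of compound dilution series (compound-plate series 10 mM to 0.0002 mM, 1:3 steps). ATPLite viability was scaled 1 (full) to 0 (none) and fitted per drug and cell line with a four-parameter log-logistic model. The standardised area under the dose-response curve in log-dose space (modified drexplorer computeAUC) runs from 1 (no response) to 0 (full response).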

SK-LMS-1 = test system: SK-LMS-1
Summary of the method: as §1

SYO-1 = test system: SYO-1
Summary of the method: as §1

VA-ES-BJ = test system: VA-ES-BJ
Summary of the method: as §1

KHOS-NP = test system: KHOS-NP
Summary of the method: as §1

SK-ES-1 = test system: SK-ES-1
Summary of the method: as §1

SW684 = test system: SW684
Summary of the method: as §1

A204 = test system: A204
Summary of the method: as §1

RD = test system: RD
Summary of the method: as §1

HS729 = test system: HS729
Summary of the method: as §1

MES-SA = test system: MES-SA
Summary of the method: as §1

SW982 = test system: SW982
Summary of the method: as §1

SW872 = test system: SW872
Summary of the method: as §1

RD-ES = test system: RD-ES
Summary of the method: as §1

KHOS-240S = test system: KHOS-240S
Summary of the method: as §1

HT1080 = test system: HT1080
Summary of the method: as §1

SW1353 = test system: SW1353
Summary of the method: as §1

Row | Compound | standardised AUC (G401) | standardised AUC (SK-LMS-1) | standardised AUC (SYO-1) | standardised AUC (VA-ES-BJ) | standardised AUC (KHOS-NP) | standardised AUC (SK-ES-1) | standardised AUC (SW684) | standardised AUC (A204) | standardised AUC (RD) | standardised AUC (HS729) | standardised AUC (MES-SA) | standardised AUC (SW982) | standardised AUC (SW872) | standardised AUC (RD-ES) | standardised AUC (KHOS-240S) | standardised AUC (HT1080) | standardised AUC (SW1353)
1 | C[C@@H]1COCCN1c1cc(-c2ccnn2C)c2ccnc(-c3ccn[nH]3)c2n1 | 0.819 | 0.751 | 0.606 | 0.626 | 0.826 | 0.637 | 0.828 | 0.689 | 0.75 | 0.782 | 0.641 | 0.615 | 0.706 | 0.673 | 0.603 | 0.686 | 0.791
2 | O=C(Cc1ccc(-c2ccc(OCCN3CCOCC3)cc2)cn1)NCc1ccccc1 [KX2-391] | 0.729 | 0.676 | 0.668 | 0.632 | 0.72 | 0.484 | 0.827 | 0.677 | 0.636 | 0.742 | 0.57 | 0.63 | 0.733 | 0.539 | 0.609 | 0.579 | 0.752
